Assay results published in patent publication US8927500B2, “Peptidomimetic macrocycles” (Aileron Therapeutics, Inc., priority 2012, dated 2015).
Where a SMILES comes first, the peptide text is derived from it. Bridges are numbered along the chain shown (N, C = ends). [ ]: non-standard residue; d: D form. R8 = C=CCCCCCC[C@@](C)(N)C(=O)O; Cba = N[C@@H](CC1CCC1)C(=O)O; S5 = C=CCCC[C@](C)(N)C(=O)O; Nle = CCCC[C@H](N)C(=O)O

Legend:
MDM2 = MDM2 (Homo sapiens, UniProt Q00987); assay: Competitive fluorescence polarization assay for MDM2; type: binding; conditions: competitive FP assay, MDM2; for IC50: read-out: IC50 (MDM2); for Ki: read-out: Ki (MDM2)
Sequence of MDM2 (Q00987 1-125): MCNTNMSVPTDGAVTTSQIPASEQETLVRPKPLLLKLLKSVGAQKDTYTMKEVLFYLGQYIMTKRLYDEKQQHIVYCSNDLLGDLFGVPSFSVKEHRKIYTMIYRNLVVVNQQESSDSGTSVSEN

MDMX = molecular target: T1, MDMX (Homo sapiens, UniProt O15151); assay: Competitive fluorescence polarization assay for MDMX; type: binding; conditions: competitive FP assay; for IC50: read-out: IC50 (MDMX); for Ki: read-out: Ki (MDMX)
T1 sequence (O15151 1-125): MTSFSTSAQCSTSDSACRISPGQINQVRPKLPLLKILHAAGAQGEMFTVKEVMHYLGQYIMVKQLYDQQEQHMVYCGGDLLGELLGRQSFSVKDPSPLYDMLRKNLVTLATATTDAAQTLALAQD

Compound | IC50 (MDM2) | Ki (MDM2) | IC50 (MDMX) | Ki (MDMX)
CC(=O)N[C@@H](CC(C)C)C(=O)N[C@H](C(=O)N[C@@H](Cc1ccccc1)C(=O)N[C@]1(C)CCCCCCC=CCCC[C@@](C)(C(=O)N[C@@H](CO)C(=O)N[C@@H](CCCNC(=N)N)C(=O)N[C@@H](C)C(N)=O)NC(=O)[C@H](CC2CCC2)NC(=O)[C@H](CCC(N)=O)NC(=O)[C@H](C)NC(=O)[C@H](Cc2c[nH]c3ccccc23)NC(=O)[C@H](Cc2ccc(O)cc2)NC(=O)[C@H](CCC(=O)O)NC1=O)[C@@H](C)O [compound 365] (Ac-LTF[R8]EYWAQ[Cba][S5]SRA-NH2; staple 4-11) | 10 to 100 nM | < 10 nM | 10 to 100 nM | < 10 nM
CC(=O)N[C@@H](CC(C)C)C(=O)N[C@H](C(=O)N[C@@H](Cc1ccccc1)C(=O)N[C@]1(C)CCCCCCC=CCCC[C@@](C)(C(=O)N[C@@H](CO)C(=O)N[C@@H](C)C(=O)N[C@@H](CCCNC(=N)N)C(N)=O)NC(=O)[C@H](CC2CCC2)NC(=O)[C@H](CCC(N)=O)NC(=O)[C@H](C)NC(=O)[C@H](Cc2c[nH]c3ccccc23)NC(=O)[C@H](Cc2ccc(O)cc2)NC(=O)[C@H](CCC(=O)O)NC1=O)[C@@H](C)O [compound 366] (Ac-LTF[R8]EYWAQ[Cba][S5]SAR-NH2; staple 4-11) | 10 to 100 nM | < 10 nM | 10 to 100 nM | 10 to 100 nM
CCCC[C@H](NC(=O)[C@H](C)NC(=O)[C@H](C)NC(=O)[C@]1(C)CCCC=CCCCCCC[C@@](C)(NC(=O)[C@H](Cc2ccccc2)NC(=O)[C@H](C)NC(=O)[C@H](CC(C)C)NC(C)=O)C(=O)N[C@@H](CCC(=O)O)C(=O)N[C@@H](Cc2ccc(O)cc2)C(=O)N[C@@H](Cc2c[nH]c3ccccc23)C(=O)N[C@@H](C)C(=O)N[C@@H](CCC(N)=O)C(=O)N[C@@H](CC(C)C)C(=O)N1)C(=O)N[C@@H](C)C(N)=O [compound 369] (Ac-LAF[R8]EYWAQL[S5]AA[Nle]A-NH2; staple 4-11) | 100 to 1000 nM | 10 to 100 nM | 100 to 1000 nM | 10 to 100 nM
CCCC[C@H](NC(=O)[C@H](C)NC(=O)[C@H](C)NC(=O)[C@]1(C)CCCC=CCCCCCC[C@@](C)(NC(=O)[C@H](Cc2ccccc2)NC(=O)[C@@H](NC(=O)[C@H](C)NC(C)=O)[C@@H](C)O)C(=O)N[C@@H](CCC(=O)O)C(=O)N[C@@H](Cc2ccc(O)cc2)C(=O)N[C@@H](Cc2c[nH]c3ccccc23)C(=O)N[C@@H](C)C(=O)N[C@@H](CCC(N)=O)C(=O)N[C@@H](CC(C)C)C(=O)N1)C(=O)N[C@@H](C)C(N)=O [compound 370] (Ac-ATF[R8]EYWAQL[S5]AA[Nle]A-NH2; staple 4-11) | 10 to 100 nM | < 10 nM | 10 to 100 nM | 10 to 100 nM
CCCC[C@H](NC(=O)[C@H](C)NC(=O)[C@H](C)NC(=O)[C@]1(C)CCCC=CCCCCCC[C@@](C)(NC(=O)[C@H](Cc2ccccc2)NC(=O)[C@H](C)NC(=O)[C@H](C)NC(C)=O)C(=O)N[C@@H](CCC(=O)O)C(=O)N[C@@H](Cc2ccc(O)cc2)C(=O)N[C@@H](Cc2c[nH]c3ccccc23)C(=O)N[C@@H](C)C(=O)N[C@@H](CCC(N)=O)C(=O)N[C@@H](CC(C)C)C(=O)N1)C(=O)N[C@@H](C)C(N)=O [compound 371] (Ac-AAF[R8]EYWAQL[S5]AA[Nle]A-NH2; staple 4-11) | 100 to 1000 nM | 10 to 100 nM | 100 to 1000 nM | 10 to 100 nM
CCCC[C@H](NC(=O)[C@H](C)NC(=O)[C@H](C)NC(=O)[C@]1(C)CCCC=CCCCCCC[C@@](C)(NC(=O)[C@H](Cc2ccccc2)NC(=O)[C@H](C)NC(=O)[C@H](C)NC(=O)[C@H](C)NC(C)=O)C(=O)N[C@@H](CCC(=O)O)C(=O)N[C@@H](Cc2ccc(O)cc2)C(=O)N[C@@H](Cc2c[nH]c3ccccc23)C(=O)N[C@@H](C)C(=O)N[C@@H](CCC(N)=O)C(=O)N[C@@H](CC(C)C)C(=O)N1)C(=O)N[C@@H](C)C(N)=O [compound 372] (Ac-AAAF[R8]EYWAQL[S5]AA[Nle]A-NH2; staple 5-12) | 100 to 1000 nM | 10 to 100 nM | 100 to 1000 nM | 10 to 100 nM
CCCC[C@H](NC(=O)[C@H](C)NC(=O)[C@H](C)NC(=O)[C@]1(C)CCCC=CCCCCCC[C@@](C)(NC(=O)[C@H](Cc2ccccc2)NC(=O)[C@H](C)NC(=O)[C@H](C)NC(=O)[C@H](C)NC(=O)[C@H](C)NC(C)=O)C(=O)N[C@@H](CCC(=O)O)C(=O)N[C@@H](Cc2ccc(O)cc2)C(=O)N[C@@H](Cc2c[nH]c3ccccc23)C(=O)N[C@@H](C)C(=O)N[C@@H](CCC(N)=O)C(=O)N[C@@H](CC(C)C)C(=O)N1)C(=O)N[C@@H](C)C(N)=O [compound 373] (Ac-AAAAF[R8]EYWAQL[S5]AA[Nle]A-NH2; staple 6-13) | 10 to 100 nM | 10 to 100 nM | 10 to 100 nM | 10 to 100 nM
CCCC[C@H](NC(=O)[C@H](C)NC(=O)[C@H](C)NC(=O)[C@]1(C)CCCC=CCCCCCC[C@@](C)(NC(=O)[C@H](Cc2ccccc2)NC(=O)[C@@H](NC(=O)[C@H](C)NC(=O)[C@H](C)NC(C)=O)[C@@H](C)O)C(=O)N[C@@H](CCC(=O)O)C(=O)N[C@@H](Cc2ccc(O)cc2)C(=O)N[C@@H](Cc2c[nH]c3ccccc23)C(=O)N[C@@H](C)C(=O)N[C@@H](CCC(N)=O)C(=O)N[C@@H](CC(C)C)C(=O)N1)C(=O)N[C@@H](C)C(N)=O [compound 374] (Ac-AATF[R8]EYWAQL[S5]AA[Nle]A-NH2; staple 5-12) | 10 to 100 nM | < 10 nM | 10 to 100 nM | < 10 nM
CCCC[C@H](NC(=O)[C@H](C)NC(=O)[C@H](C)NC(=O)[C@]1(C)CCCC=CCCCCCC[C@@](C)(NC(=O)[C@H](Cc2ccccc2)NC(=O)[C@@H](NC(=O)[C@H](CC(C)C)NC(=O)[C@H](C)NC(=O)[C@H](C)NC(C)=O)[C@@H](C)O)C(=O)N[C@@H](CCC(=O)O)C(=O)N[C@@H](Cc2ccc(O)cc2)C(=O)N[C@@H](Cc2c[nH]c3ccccc23)C(=O)N[C@@H](C)C(=O)N[C@@H](CCC(N)=O)C(=O)N[C@@H](CC(C)C)C(=O)N1)C(=O)N[C@@H](C)C(N)=O [compound 375] (Ac-AALTF[R8]EYWAQL[S5]AA[Nle]A-NH2; staple 6-13) | 10 to 100 nM | < 10 nM | 10 to 100 nM | < 10 nM
CCCC[C@H](NC(=O)[C@H](C)NC(=O)[C@H](C)NC(=O)[C@]1(C)CCCC=CCCCCCC[C@@](C)(NC(=O)[C@H](Cc2ccccc2)NC(=O)[C@@H](NC(=O)[C@H](CC(C)C)NC(=O)[C@H](C)NC(=O)[C@H](C)NC(=O)[C@H](C)NC(C)=O)[C@@H](C)O)C(=O)N[C@@H](CCC(=O)O)C(=O)N[C@@H](Cc2ccc(O)cc2)C(=O)N[C@@H](Cc2c[nH]c3ccccc23)C(=O)N[C@@H](C)C(=O)N[C@@H](CCC(N)=O)C(=O)N[C@@H](CC(C)C)C(=O)N1)C(=O)N[C@@H](C)C(N)=O [compound 376] (Ac-AAALTF[R8]EYWAQL[S5]AA[Nle]A-NH2; staple 7-14) | 10 to 100 nM | < 10 nM | 10 to 100 nM | < 10 nM
CCCC[C@H](NC(=O)[C@H](C)NC(=O)[C@H](C)NC(=O)[C@]1(C)CCCC=CCCCCCC[C@@](C)(NC(=O)[C@H](Cc2ccccc2)NC(=O)[C@@H](NC(=O)[C@H](CC(C)C)NC(C)=O)[C@@H](C)O)C(=O)N[C@@H](CCC(=O)O)C(=O)N[C@@H](Cc2ccc(O)cc2)C(=O)N[C@@H](Cc2c[nH]c3ccccc23)C(=O)N[C@@H](C)C(=O)N[C@@H](CCC(N)=O)C(=O)N[C@@H](CC(C)C)C(=O)N1)C(=O)N[C@@H](C)C(=O)N[C@@H](C)C(N)=O [compound 377] (Ac-LTF[R8]EYWAQL[S5]AA[Nle]AA-NH2; staple 4-11) | 10 to 100 nM | < 10 nM | 10 to 100 nM | 10 to 100 nM
